By IC50 is commonly meant the concentration that inhibits the measured activity by half. Lower therefore signals higher potency.

Molecules are shown by their SMILES.

In one assay the target is T1, Substance-P receptor (Cavia porcellus, UniProt P30547). Briefly: (§1) Inhibitory activity against Neurokinin 1 (NK1) receptor from guinea pig lung.
T1 sequence (P30547 whole entry): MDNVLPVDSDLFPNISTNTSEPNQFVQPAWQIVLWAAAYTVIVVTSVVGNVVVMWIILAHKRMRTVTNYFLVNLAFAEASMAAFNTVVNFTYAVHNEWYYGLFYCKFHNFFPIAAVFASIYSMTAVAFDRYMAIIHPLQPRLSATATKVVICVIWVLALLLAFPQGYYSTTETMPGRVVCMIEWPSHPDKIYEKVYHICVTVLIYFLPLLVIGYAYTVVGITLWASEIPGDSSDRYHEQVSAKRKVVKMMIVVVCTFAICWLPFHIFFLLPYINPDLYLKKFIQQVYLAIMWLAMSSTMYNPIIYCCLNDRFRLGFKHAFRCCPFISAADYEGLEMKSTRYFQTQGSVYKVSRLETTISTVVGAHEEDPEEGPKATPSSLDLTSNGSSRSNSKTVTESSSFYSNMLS
Consider `COc1cc(C(=O)N2CO[C@](CCN3CCC(C(N)=O)(c4ccccc4)CC3)(c3ccc(Cl)cc3)C2)cc(OC)c1OC`, for which the IC50 is 27 nM. On the same count and under the same terms, for `COc1cc(C(=O)N2CO[C@](CCN3CCN(c4ccc(C(C)=O)cc4)CC3)(c3ccc(Cl)c(Cl)c3)C2)cc(OC)c1OC` the value was 18 nM. The same measure, in the same setting: for `COc1cc(C(=O)N2CO[C@](CCN3CCC(C(N)=O)(c4ccccc4)CC3)(c3ccc(F)c(F)c3)C2)cc(OC)c1OC` the value was 10 nM; for `COc1cc(C(=O)N2CO[C@](CCN3CCC(C(N)=O)(c4ccccc4)CC3)(c3ccc(F)cc3)C2)cc(OC)c1OC`, 27 nM.

In a further assay the target is T2, Substance-K receptor (Cavia porcellus, UniProt Q64077).
T2 sequence (Q64077 whole entry): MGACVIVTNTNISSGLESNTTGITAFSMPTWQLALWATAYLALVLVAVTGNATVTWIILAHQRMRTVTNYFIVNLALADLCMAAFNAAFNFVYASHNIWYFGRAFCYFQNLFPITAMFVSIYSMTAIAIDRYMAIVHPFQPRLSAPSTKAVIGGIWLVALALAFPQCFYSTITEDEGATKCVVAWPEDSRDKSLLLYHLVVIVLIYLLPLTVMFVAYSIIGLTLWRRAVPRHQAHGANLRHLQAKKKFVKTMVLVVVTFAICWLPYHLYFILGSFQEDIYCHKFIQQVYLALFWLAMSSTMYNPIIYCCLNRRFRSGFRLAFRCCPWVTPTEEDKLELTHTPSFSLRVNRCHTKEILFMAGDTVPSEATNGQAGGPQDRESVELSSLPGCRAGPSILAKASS
Briefly: ChEBML_142706. The text has this:
(§2) Inhibitory activity against Neurokinin 2 (NK2) receptor from guinea pig ileum
Turning to `COc1cc(C(=O)N2CO[C@](CCN3CCC4(CC3)c3ccccc3C[S+]4[O-])(c3ccc(Cl)c(Cl)c3)C2)cc(OC)c1OC` (some centres undefined), the IC50 was 7.5 nM.

In turn, `COc1cc(C(=O)N2CO[C@](CCN3CCC4(CC3)C(=O)N(C)c3ccccc34)(c3ccc(Cl)c(Cl)c3)C2)cc(OC)c1OC` had an IC50 of 34 nM.

For the molecule `COc1cc(C(=O)N2CO[C@](CCN3CCC(C(N)=O)(c4ccccc4)CC3)(c3ccc(Cl)c(Cl)c3)C2)cc(OC)c1OC`, the half-inhibitory concentration (IC50) was determined as 91 nM.

The target in a further assay is T2, Substance-K receptor. The assay is described as §2.
Consider `COc1cc(C(=O)N2CO[C@](CCN3CCC4(CC3)C[S+]([O-])c3ccccc34)(c3ccc(Cl)c(Cl)c3)C2)cc(OC)c1OC` (some centres undefined), for which the IC50 was 7.3 nM. Still for that read-out and setting: for `COc1cc(C(=O)N2CO[C@](CCN3CCC(C(=O)N(C)C)(c4ccccc4)CC3)(c3ccc(Cl)cc3)C2)cc(OC)c1OC` the value was 4.7 nM.

Consider `COc1cc(C(=O)N2CO[C@](CCN3CCN(c4ccc(C(C)=O)cc4)CC3)(c3ccc(Cl)c(Cl)c3)C2)cc(OC)c1OC`, for which 74 nM corresponded to half-maximal inhibition (IC50). This IC50 lies about 16-fold higher than the previous one. Turning to `COc1cc(C(=O)N2CO[C@](CCN3CCC(C(=O)N4CCOCC4)(c4ccccc4)CC3)(c3ccc(Cl)c(Cl)c3)C2)cc(OC)c1OC`, the IC50 was 52 nM.

The next assay deals with T1, Substance-P receptor. The assay can be described thus: ChEBML_144914.
From the text: as §1
`COc1cc(C(=O)N2CO[C@](CCN3CCC4(CC3)c3ccccc3C[S+]4[O-])(c3ccc(F)c(F)c3)C2)cc(OC)c1OC` (some centres undefined) showed an IC50 of 16 nM. The same measure, in the same setting: for `COc1cc(C(=O)N2CO[C@](CCN3CCC4(CC3)NC(=O)Cc3ccccc34)(c3ccc(F)c(F)c3)C2)cc(OC)c1OC` the value was 28 nM; for `COc1cc(C(=O)N2CO[C@](CCN3CCC(C(=O)N(C)C)(c4ccccc4)CC3)(c3ccc(F)c(F)c3)C2)cc(OC)c1OC`, 27 nM.
